The values that follow come from patent publication US10385022B2, “3-amino-pyridines as GPBAR1 agonists” (HOFFMANN-LA ROCHE INC., priority 2011, dated 2019).

One may read the EC50 as the concentration that produces a half-maximal response.

The target in the experiment is human GPBAR1 receptor (Homo sapiens (Human), UniProt Q8TDU6). The experiment in a line: functional cAMP assay in CHO-dhfr(minus) cells expressing human GPBAR1 receptors. As to conditions: CHO-dhfr(minus) cells expressing human GPBAR1, 30 min at 30° C. Format: cell-based. A digest of the protocol: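 CHO-dhfr- cells were transfected with human GPBAR1, and a clone was chosen by cAMP response to lithocholic acid. EC50 values come from the cAMP read-out; specificity was checked in non-transfected CHO cells.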
human GPBAR1 receptor, sequence (Q8TDU6 whole entry): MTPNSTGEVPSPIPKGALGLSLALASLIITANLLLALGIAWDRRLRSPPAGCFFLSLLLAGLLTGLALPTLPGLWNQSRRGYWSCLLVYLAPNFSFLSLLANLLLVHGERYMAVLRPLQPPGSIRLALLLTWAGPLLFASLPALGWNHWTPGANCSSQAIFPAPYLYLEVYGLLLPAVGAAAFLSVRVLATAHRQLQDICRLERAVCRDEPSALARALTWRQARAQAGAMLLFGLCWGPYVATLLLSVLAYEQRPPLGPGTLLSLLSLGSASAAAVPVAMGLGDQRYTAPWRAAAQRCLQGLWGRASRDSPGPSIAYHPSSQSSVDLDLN
(In general: Cyclic AMP is a second messenger, typically raised through Gs and lowered through Gi signalling.)
`COc1cc(F)ccc1-c1ccncc1N(CC(N)=O)C(=O)c1cc(C(F)(F)F)cc(S(C)(=O)=O)c1` [Example 187, N-Carbamoylmethyl-N-[4-(4-fluoro-2-methoxy-phenyl)-pyridin-3-yl]-3-methanesulfonyl-5-trifluoromethyl-benzamide] yielded an EC50 of 478 nM.

In the case of `COc1cc(F)c(F)cc1-c1ccncc1N(CC(N)=O)C(=O)c1cc(C(F)(F)F)nc(C(F)(F)F)c1` [Example 174, N-(2-Amino-2-oxoethyl)-N-(4-(4,5-difluoro-2-methoxyphenyl)pyridin-3-yl)-2,6-bis(trifluoromethyl)isonicotinamide], a half-maximal response (EC50) required 54 nM.

For the compound `COc1cc(F)ccc1-c1ccncc1N(C)C(=O)c1cc(C(F)(F)F)cc(S(=O)(=O)CCCC(=O)O)c1` [Example 247, 4-(3-{[4-(4-Fluoro-2-methoxy-phenyl)-pyridin-3-yl]-methyl-carbamoyl}-5-trifluoromethyl-benzenesulfonyl)-butyric acid], the EC50 is 413 nM.

`COC(=O)CCSc1cc(C(=O)N(C)c2cnccc2-c2ccc(F)cc2OC)cc(C(F)(F)F)c1` [Example 225, 3-(3-{[4-(4-Fluoro-2-methoxy-phenyl)-pyridin-3-yl]-methyl-carbamoyl}-5-trifluoromethyl-phenylsulfanyl)-propionic acid methyl ester] displayed a concentration giving a half-maximal response (EC50) of 241 nM.

Turning to `Cc1ccccc1-c1ccncc1N(C)C(=O)c1ccc(F)c(Cl)c1` [Example 11, 3-Chloro-4-fluoro-N-methyl-N-(4-o-tolyl-pyridin-3-yl)-benzamide], a half-maximal effect (EC50) was put at 406 nM.

As for `CCOC(=O)CCc1cc(C(=O)N(C)c2cnccc2-c2ccc(F)cc2OC)cc(C(F)(F)F)c1` [Example 266, 3-(3-{[4-(4-Fluoro-2-methoxy-phenyl)-pyridin-3-yl]-methyl-carbamoyl}-5-trifluoromethyl-phenyl)-propionic acid ethyl ester], the response was half-maximal at 177 nM (EC50).

In turn, `COc1ccccc1-c1ccncc1N(C)C(=O)c1cc(C(F)(F)F)cc(S(C)(=O)=O)c1` [Example 263, 3-Methanesulfonyl-N-[4-(2-methoxy-phenyl)-pyridin-3-yl]-N-methyl-5-trifluoromethyl-benzamide] showed an EC50 of 17 nM.

Compound `COc1cc(F)ccc1-c1ccncc1N(C)C(=O)c1cc(SCCNS(C)(=O)=O)cc(C(F)(F)F)c1` [Example 262, N-[4-(4-Fluoro-2-methoxy-phenyl)-pyridin-3-yl]-3-(2-methanesulfonylamino-ethylsulfanyl)-N-methyl-5-trifluoromethyl-benzamide] gave an EC50 of 231 nM.

Regarding `CS(=O)(=O)c1cc(C(=O)N(CC(N)=O)c2cnccc2-c2ccccc2Cl)cc(C(F)(F)F)c1` [Example 296, N-Carbamoylmethyl-N-[4-(2-chloro-phenyl)-pyridin-3-yl]-3-methanesulfonyl-5-trifluoromethyl-benzamide], the EC50 worked out at 1340 nM.

Compound `COc1cc(F)ccc1-c1ccncc1N(Cc1nc(C)co1)C(=O)c1cc(C(F)(F)F)cc(S(C)(=O)=O)c1` [Example 293, N-[4-(4-Fluoro-2-methoxy-phenyl)-pyridin-3-yl]-3-methanesulfonyl-N-(4-methyl-oxazol-2-ylmethyl)-5-trifiuoromethyl-benzamide] registered a concentration for a half-maximal effect (EC50) of 2460 nM.

Consider `Cc1ccccc1-c1ccncc1N(C)C(=O)c1ccc(Cl)c(Cl)c1` [Example 10, 3,4-Dichloro-N-methyl-N-(4-o-tolyl-pyridin-3-yl)-benzamide], for which the response was half-maximal at 238 nM (EC50).

Compound `CC(C)N(C(=O)c1cc(C(F)(F)F)cc(C(F)(F)F)c1)c1cnccc1-c1ccccc1Cl` [Example 126, N-[4-(2-Chloro-phenyl)-pyridin-3-yl]-N-isopropyl-3,5-bis-trifluoromethyl-benzamide] returned a half-maximal effective concentration (EC50) of 620 nM.

The compound `COc1cc(F)ccc1-c1ccncc1N(C)C(=O)c1cc(C2CN(C(=O)OC(C)(C)C)C2)cc(C(F)(F)F)c1` [Example 245, 3-(3-{[4-(4-Fluoro-2-methoxy-phenyl)-pyridin-3-yl]-methyl-carbamoyl}-5-trifluoromethyl-phenyl)-azetidine-1-carboxylic acid tert-butyl ester] showed a 50% effective concentration (EC50) of 933 nM.

In the case of `CN(C(=O)c1cc(C(F)(F)F)cc(C(F)(F)F)c1)c1cnccc1-c1ccccc1C(F)(F)F` [Example 28, N-Methyl-3,5-bis-trifluoromethyl-N-[4-(2-trifluoromethyl-phenyl)-pyridin-3-yl]-benzamide], the EC50 worked out at 863 nM.

`CN(C(=O)c1cc(C(F)(F)F)cc(C(F)(F)F)c1)c1cnccc1-c1ccccc1` [Example 322, N-Methyl-N-(4-phenyl-pyridin-3-yl)-3,5-bis-trifluoromethyl-benzamide] returned a concentration for a half-maximal effect (EC50) of 11 nM.

`COc1cc(F)ccc1-c1ccncc1N(Cc1ncco1)C(=O)c1cc(C(F)(F)F)cc(S(C)(=O)=O)c1` [Example 22, N-[4-(4-Fluoro-2-methoxy-phenyl)-pyridin-3-yl]-3-methanesulfonyl-N-oxazol-2-ylmethyl-5-trifluoromethyl-benzamide] yielded an EC50 of 35 nM.

`CN(C(=O)c1cc(CO)cc(C(F)(F)F)c1)c1cnccc1-c1ccccc1Cl` [Example 76, N-[4-(2-Chloro-phenyl)-pyridin-3-yl]-3-hydroxymethyl-N-methyl-5-trifluoromethyl-benzamide] had an EC50 of 1960 nM.

As for `COc1cc(F)ccc1-c1ccncc1N(C)C(=O)c1cc(C(F)(F)F)nc(C(F)(F)F)c1` [Example 148, N-[4-(4-Fluoro-2-methoxy-phenyl)-pyridin-3-yl]-N-methyl-2,6-bis-trifluoro methyl-isonicotinamide], the EC50 stood at 6 nM.

In the case of `CN(C(=O)c1cc(C(F)(F)F)cc(C(F)(F)F)c1)c1cnccc1-c1cccc(Cl)n1` [Example 71, N-(6-Chloro-[2,4′]bipyridinyl-3′-yl)-N-methyl-3,5-bis-trifluoromethyl-benzamide], a half-maximal effect (EC50) was put at 1540 nM.

`COc1cc(F)c(F)cc1-c1ccncc1N(CC(N)=O)C(=O)c1cc(C(F)(F)F)cc(C(F)(F)F)c1` [Example 189, N-Carbamoylmethyl-N-[4-(4,5-difluoro-2-methoxy-phenyl)-pyridin-3-yl]-3,5-bis-trifluoromethyl-benzamide] registered an EC50 of 47 nM.

The compound `COc1ccc(F)c(-c2ccncc2N(C)C(=O)c2cc(C(F)(F)F)cc(C(F)(F)F)c2)c1` [Example 63, N-[4-(2-Fluoro-5-methoxy-phenyl)-pyridin-3-yl]-N-methyl-3,5-bis-trifluoromethyl-benzamide] yielded an EC50 of 23 nM.

In the case of `NC(=O)CN(C(=O)c1cc(C(F)(F)F)cc(C(F)(F)F)c1)c1cnccc1-c1ccccc1Cl` [Example 117, N-Carbamoylmethyl-N-[4-(2-chloro-phenyl)-pyridin-3-yl]-3,5-bis-trifluoromethyl-benzamide], a half-maximal effect (EC50) was put at 52 nM.

Consider `Cc1cnccc1-c1ccncc1N(C)C(=O)c1cc(C(F)(F)F)cc(C(F)(F)F)c1` [Example 34, N-Methyl-N-(3′-methyl-[4,4′]bipyridinyl-3-yl)-3,5-bis-trifluoromethyl-benzamide], for which a half-maximal response (EC50) required 502 nM.

`COC(=O)CCS(=O)(=O)c1cc(C(=O)N(C)c2cnccc2-c2ccc(F)cc2OC)cc(C(F)(F)F)c1` [Example 224, 3-(3-{[4-(4-Fluoro-2-methoxy-phenyl)-pyridin-3-yl]-methyl-carbamoyl}-5-trifluoromethyl-benzenesulfonyl)-propionic acid methyl ester] displayed a concentration for a half-maximal effect (EC50) of 46 nM.

Turning to `COc1cc(F)ccc1-c1ccncc1N(C)C(=O)c1cc(SC2CN(C(=O)OC(C)(C)C)C2)cc(C(F)(F)F)c1` [Example 268, 3-(3-{[4-(4-Fluoro-2-methoxy-phenyl)-pyridin-3-yl]-methyl-carbamoyl}-5-trifluoromethyl-phenylsulfanyl)-azetidine-1-carboxylic acid tert-butyl ester], the EC50 came out at 768 nM.

On to `CN(C(=O)c1cc(C(F)(F)F)cc(S(C)(=O)=O)c1)c1cnccc1-c1ccccc1OC1CCC1` [Example 277, N-[4-(2-Cyclobutoxy-phenyl)-pyridin-3-yl]-3-methanesulfonyl-N-methyl-5-trifluoromethyl-benzamide], for which a half-maximal effect (EC50) was put at 8 nM.

In the case of `COc1cc(F)ccc1-c1ccncc1N(Cc1nccn1C)C(=O)c1cc(C(F)(F)F)cc(S(C)(=O)=O)c1` [Example 250, N-[4-(4-Fluoro-2-methoxy-phenyl)-pyridin-3-yl]-3-methanesulfonyl-N-(1-methyl-1H-imidazol-2-ylmethyl)-5-trifluoromethyl-benzamide], a half-maximal response (EC50) required 2960 nM.

`COc1cc(F)c(F)cc1-c1ccncc1N(C)C(=O)c1cc(F)cc(C(F)(F)F)c1` [Example 130, N-[4-(4,5-Difluoro-2-methoxy-phenyl)-pyridin-3-yl]-3-fluoro-N-methyl-5-trifluoromethyl-benzamide] yielded a 50% effective concentration (EC50) of 166 nM.

As for `COc1cc(F)ccc1-c1ccncc1N(C)C(=O)c1cc(C(F)(F)F)cc(S(=O)(=O)N2CCS(=O)(=O)CC2)c1` [Example 304, 3-(1,1-Dioxo-thiomorpholine-4-sulfonyl)-N-[4-(4-fluoro-2-methoxy-phenyl)-pyridin-3-yl]-N-methyl-5-trifluoromethyl-benzamide], a half-maximal response (EC50) required 15 nM.

`CS(=O)(=O)CCN(C(=O)c1cc(C(F)(F)F)cc(S(C)(=O)=O)c1)c1cnccc1-c1ccccc1OC(F)(F)F` [Example 308, 3-Methanesulfonyl-N-(2-methanesulfonyl-ethyl)-N-[4-(2-trifluoromethoxy-phenyl)-pyridin-3-yl]-5-trifluoromethyl-benzamide] yielded an EC50 of 936 nM.

In turn, `CS(=O)(=O)c1cc(C(=O)N(CC(N)=O)c2cnccc2-c2ccccc2F)cc(C(F)(F)F)c1` [Example 219, N-Carbamoylmethyl-N-[4-(2-fluoro-phenyl)-pyridin-3-yl]-3-methanesulfonyl-5-trifluoromethyl-benzamide] registered a concentration for a half-maximal effect (EC50) of 3030 nM.

`COc1cc(F)ccc1-c1cc(C)ncc1N(C)C(=O)c1cc(C(F)(F)F)cc(S(=O)(=O)CCCCC(=O)NCC(=O)O)c1` [Example 317, [5-(3-{[4-(4-Fluoro-2-methoxy-phenyl)-6-methyl-pyridin-3-yl]-methyl-carbamoyl}-5-trifluoromethyl-benzenesulfonyl)-pentanoylamino]-acetic acid] yielded an EC50 of 418 nM.
